ChEMBL document CHEMBL5543153, “Discovery of a Potent Dual Son of Sevenless 1 (SOS1) and Epidermal Growth Factor Receptor (EGFR) Inhibitor for the Treatment of Prostate Cancer” (J Med Chem, 2024)
Calls of active or inactive are those of the source. The calls are words filed in the database; no cut-off is given here.

Experiments:
[1] = Toxicity in BALB/c mouse xenografted with human PC-3 cells assessed as heart pathological change at 5 mg/kg,ip administrated once every 4 days for 24 days by hematoxylin and eosin staining based analysis; format: organism-based; details: in vivo, 576 h, time 24 day
PC-3 [2] = test: Induction of cell cycle arrest in human PC-3 cells assessed as accumulation of cells at G2 phase at 12.5 uM by PI staining based flow cytometry (reference value: 7.75%); format: functional
[3] = Toxicity in BALB/c mouse xenografted with human PC-3 cells assessed as lung pathological change at 20 mg/kg,ip administrated once every 4 days for 24 days by hematoxylin and eosin staining based analysis; format: organism-based; details: in vivo, 576 h, time 24 day
PC-3 [4] = test: Induction of cell cycle arrest in human PC-3 cells assessed as accumulation of cells at S phase at 2.5 uM by PI staining based flow cytometry (reference value: 16.58%); format: functional
HUVEC [5] = test: Antiangiogenic activity in HUVEC cells assessed as reduction in tube length at 0.5 to 12.5 uM incubated for 8 hrs by matrigel based microscopic analysis; format: functional, cell-based; details: Homo sapiens, dose 0.5-12.5 µM
[6] = target: T1, Epidermal growth factor receptor (Homo sapiens, UniProt P00533); test: Inhibition of EGFR in human PC-3 cells assessed as downregulation of AKT phosphorylation at 2.5 uM incubated for 15 mins by Western blotting analysis; format: cell-based
T1 sequence (P00533 whole entry): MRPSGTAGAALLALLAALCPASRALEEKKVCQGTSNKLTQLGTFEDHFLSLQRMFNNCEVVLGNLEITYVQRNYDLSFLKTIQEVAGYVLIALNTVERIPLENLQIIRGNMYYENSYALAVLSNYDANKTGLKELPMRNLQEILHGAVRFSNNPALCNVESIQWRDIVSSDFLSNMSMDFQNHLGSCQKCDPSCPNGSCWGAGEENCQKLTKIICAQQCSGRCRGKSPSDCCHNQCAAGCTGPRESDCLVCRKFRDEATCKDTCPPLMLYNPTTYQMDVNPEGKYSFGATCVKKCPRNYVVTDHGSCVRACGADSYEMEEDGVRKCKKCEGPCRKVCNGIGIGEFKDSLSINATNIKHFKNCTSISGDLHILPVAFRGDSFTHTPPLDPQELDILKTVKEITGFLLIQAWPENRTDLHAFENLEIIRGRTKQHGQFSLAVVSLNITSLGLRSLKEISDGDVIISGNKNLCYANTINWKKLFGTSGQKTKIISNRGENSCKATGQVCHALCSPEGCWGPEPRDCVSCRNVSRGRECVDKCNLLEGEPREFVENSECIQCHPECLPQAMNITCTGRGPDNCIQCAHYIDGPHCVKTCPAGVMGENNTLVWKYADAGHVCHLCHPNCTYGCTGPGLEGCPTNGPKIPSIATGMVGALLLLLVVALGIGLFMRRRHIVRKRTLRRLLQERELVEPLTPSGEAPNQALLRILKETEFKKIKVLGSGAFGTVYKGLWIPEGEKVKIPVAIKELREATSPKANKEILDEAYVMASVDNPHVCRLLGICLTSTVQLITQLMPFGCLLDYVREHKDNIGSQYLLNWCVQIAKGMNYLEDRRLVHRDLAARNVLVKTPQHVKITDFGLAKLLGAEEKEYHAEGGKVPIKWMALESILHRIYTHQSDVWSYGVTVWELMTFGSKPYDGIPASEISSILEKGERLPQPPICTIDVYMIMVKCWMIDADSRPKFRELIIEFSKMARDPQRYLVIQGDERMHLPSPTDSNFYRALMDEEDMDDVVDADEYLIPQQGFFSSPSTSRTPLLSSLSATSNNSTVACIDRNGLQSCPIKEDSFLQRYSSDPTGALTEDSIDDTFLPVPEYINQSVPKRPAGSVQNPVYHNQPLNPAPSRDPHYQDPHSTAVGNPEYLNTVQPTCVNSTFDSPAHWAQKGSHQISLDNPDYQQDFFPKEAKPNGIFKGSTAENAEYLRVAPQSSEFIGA

PC-3 [7] = test: cells; format: functional, cell-based; details: Homo sapiens, PC-3, 72 h
Description: Antiproliferative activity against human PC-3 cells assessed as inhibition of cell growth incubated for 72 hrs by MTT assay

PC-3 [8] = test: Induction of apoptosis in human PC-3 cells assessed as late apoptotic cells at 0.5 uM by Annexin V-FITC staining based flow cytometry (reference value: 1.93%); format: functional
HUVEC [9] = test: Antiangiogenic activity in HUVEC cells assessed as reduction in tube formation at 0.5 to 12.5 uM incubated for 8 hrs by matrigel based microscopic analysis; format: functional, cell-based; details: Homo sapiens, dose 0.5-12.5 µM
HepG2 = test: Antiproliferative activity against human HepG2 cells assessed as inhibition of cell growth incubated for 72 hrs by MTT assay; format: functional, cell-based
PC-3 [10] = test: Induction of apoptosis in human PC-3 cells assessed as upregulation of cleaved PARP expression by Western blotting analysis; format: functional, cell-based
DLD-1 = test: Antiproliferative activity against human DLD-1 cells assessed as inhibition of cell growth incubated for 72 hrs by MTT assay; format: functional, cell-based
PC-3 [11] = test: Induction of cell cycle arrest in human PC-3 cells assessed as accumulation of cells at G2 phase at 0.5 uM by PI staining based flow cytometry (reference value: 7.75%); format: functional
[12] = target: T2, Son of sevenless homolog 1 (Homo sapiens) (UniProt Q07889); test: Inhibition of SOS1 in human PC-3 cells assessed as downregulation of RAS-GTP expression at 12.5 uM incubated for 15 mins by Western blotting analysis; format: cell-based
T2 sequence (whole entry): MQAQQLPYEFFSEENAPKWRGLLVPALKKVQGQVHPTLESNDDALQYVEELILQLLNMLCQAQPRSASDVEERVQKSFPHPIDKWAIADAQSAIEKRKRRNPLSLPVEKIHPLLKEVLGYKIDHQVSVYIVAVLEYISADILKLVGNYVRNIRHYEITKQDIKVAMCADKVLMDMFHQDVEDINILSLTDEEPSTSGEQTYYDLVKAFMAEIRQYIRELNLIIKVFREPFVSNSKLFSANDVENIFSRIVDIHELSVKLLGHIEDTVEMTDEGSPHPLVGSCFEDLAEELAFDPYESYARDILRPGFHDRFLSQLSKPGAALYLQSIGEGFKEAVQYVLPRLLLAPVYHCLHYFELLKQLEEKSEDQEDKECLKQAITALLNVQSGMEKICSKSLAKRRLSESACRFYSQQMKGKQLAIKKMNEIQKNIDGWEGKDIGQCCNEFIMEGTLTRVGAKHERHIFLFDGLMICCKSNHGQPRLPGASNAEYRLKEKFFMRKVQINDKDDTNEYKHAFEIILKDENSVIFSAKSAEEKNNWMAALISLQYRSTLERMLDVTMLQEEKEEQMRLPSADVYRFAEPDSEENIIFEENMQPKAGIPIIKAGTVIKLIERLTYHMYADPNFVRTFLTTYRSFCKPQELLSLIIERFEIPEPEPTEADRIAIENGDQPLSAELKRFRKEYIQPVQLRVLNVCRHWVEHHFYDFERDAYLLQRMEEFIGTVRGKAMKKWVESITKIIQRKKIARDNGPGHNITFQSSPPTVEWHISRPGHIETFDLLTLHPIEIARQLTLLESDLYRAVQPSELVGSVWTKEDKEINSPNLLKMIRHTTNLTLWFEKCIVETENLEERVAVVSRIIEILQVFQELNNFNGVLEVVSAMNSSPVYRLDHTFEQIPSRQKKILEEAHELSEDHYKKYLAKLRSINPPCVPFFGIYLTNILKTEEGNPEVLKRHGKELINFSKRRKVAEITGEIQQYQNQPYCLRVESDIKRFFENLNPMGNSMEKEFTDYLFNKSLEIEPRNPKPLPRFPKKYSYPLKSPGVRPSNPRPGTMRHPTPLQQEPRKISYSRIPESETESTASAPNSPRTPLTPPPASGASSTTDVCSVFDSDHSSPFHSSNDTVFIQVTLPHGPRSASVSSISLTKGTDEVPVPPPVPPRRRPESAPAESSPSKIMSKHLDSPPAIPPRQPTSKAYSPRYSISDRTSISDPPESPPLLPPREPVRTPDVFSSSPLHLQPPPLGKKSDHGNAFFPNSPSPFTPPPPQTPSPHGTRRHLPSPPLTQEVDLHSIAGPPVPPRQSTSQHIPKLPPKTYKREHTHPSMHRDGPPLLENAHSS

HUVEC [13] = test: Antiangiogenic activity in HUVEC cells assessed as reduction of meshes at 0.5 to 12.5 uM incubated for 8 hrs by matrigel based microscopic analysis; format: functional, cell-based; details: Homo sapiens, dose 0.5-12.5 µM
HUVEC [14] = test: Antiangiogenic activity in HUVEC cells assessed as reduction in tube master junction at 0.5 to 12.5 uM incubated for 8 hrs by matrigel based microscopic analysis; format: functional, cell-based; details: Homo sapiens, dose 0.5-12.5 µM
[15] = Toxicity in BALB/c mouse xenografted with human PC-3 cells assessed as lung pathological change at 5 mg/kg,ip administrated once every 4 days for 24 days by hematoxylin and eosin staining based analysis; format: organism-based; details: in vivo, 576 h, time 24 day
PC-3 [16] = test: Antitumor activity against human PC-3 cells xenografted in BALB/c mouse assessed as reduction in tumor weight at 5 mg/kg,ip administrated once every 4 days for 24 days; format: functional, organism-based; details: time 24.0 day
[17] = target: T1, Epidermal growth factor receptor; test: Inhibition of EGFR in human PC-3 cells assessed as downregulation of EGF-mediated AKT phosphorylation at 0.5 uM incubated for 15 mins in presence of EGF by Western blotting analysis; format: cell-based
[18] = target: T1, Epidermal growth factor receptor; test: Inhibition of EGFR in human PC-3 cells assessed as downregulation of EGF-mediated AKT phosphorylation at 12.5 uM incubated for 15 mins in presence of EGF by Western blotting analysis; format: cell-based
PC-3 [19] = test: Antiproliferative activity against human PC-3 cells transfected with SOS1 shRNA assessed as inhibition of cell growth incubated for 72 hrs by MTT assay; format: functional, cell-based; details: PC-3, 72 h
[20] = Toxicity in BALB/c mouse xenografted with human PC-3 cells assessed as change in blood urea nitrogen level at 5 mg/kg,ip administrated once every 4 days for 24 days by automatic biochemical analyzer; format: organism-based; details: in vivo, 576 h, time 24 day

COc1cc2ncnc(N[C@H](C)c3cccc(F)c3)c2cc1OC1CCOCC1
Activity [1]: Toxic | Activity (PC-3 [2]): 5.95% | Activity [3]: Toxic | Activity (PC-3 [4]): 5.5% | Activity (HUVEC [5]): Active | inhibition [6]: Active | IC50 (PC-3 [7]): 450 nM | Activity (PC-3 [8]): 2.74% | Activity (HUVEC [9]): Active | Activity (HepG2): Active | Activity (PC-3 [10]): Dose-Dependent Effect | Activity (DLD-1): Active | Activity (PC-3 [11]): 9.71% | inhibition [12]: Active | Activity (HUVEC [13]): Active | Activity (HUVEC [14]): Active | Activity [15]: Toxic | Activity (PC-3 [16]): Active | inhibition [17]: Active | inhibition [18]: Active | IC50 (PC-3 [19]): 3920 nM | Activity [20]: Non-Toxic
